Measured values as given in patent publication US11471456B2, “Formulations comprising heterocyclic protein kinase inhibitors” (Sumitomo Pharma Oncology, Inc., priority 2019, dated 2022).
In brackets after ≈: the same amount, converted by molar mass. Where two headings read alike, the source gives them in different places. Values belong to the molecule of their own block, whether it stands above or below them.

Assays:
[1] = DVS (hygroscopicity) of free base and salts; type: physicochemical
[2] = Phase 1 first-in-human escalating dose study in patients with advanced solid tumors; type: in vivo
Description: The study is currently enrolling Cohort 3 at a dose level of 1080 mg qd.

[3] = HPLC solubility in SGF, FaSSIF, FeSSIF at 37° C.; type: physicochemical; conditions: thermodynamic from solid
Description: HPLC Method. The chromatographic conditions for HPLC are summarized below.
The samples were then centrifuged and filtered. Saturated solutions were diluted with MeOH:H2O=1:2 (v:v), and the concentrations were determined by HPLC. The final pH of the saturated solutions was tested.

[4] = Oral bioavailability of the compound of structure (I) in rats with different excipients; type: in vivo; conditions: for bioavailability: rat, in vivo, po

Compound: CC(C)(O)C1CCC(Nc2ccc3ncc(-c4cccc(C(F)(F)F)c4)n3n2)CC1.Cl [Hydrochloric acid salt, 2-((1R,4R)-4-((3-(3-(trifluoromethyl)phenyl)imidazo[1,2-b]pyridazin-6-yl)amino)cyclohexyl)propan-2-ol hydrochloride]
DVS (weight gain, %) [1]: 2.83% | hygroscopicity by DVS compared with methanesulfonic acid salt [1]: much lower hygroscopicity

solubility at 0.5 h ([3]; simulated gastric fluid, SGF): 1360 µg/mL (≈ 3250 µM) | solubility at 2 h ([3]; simulated gastric fluid, SGF): 1270 µg/mL (≈ 3030 µM) | solubility at 24 h ([3]; simulated gastric fluid, SGF): 903 µg/mL (≈ 2160 µM) | solubility at 0.5 h ([3]; FaSSIF): 10.4 µg/mL (≈ 24.9 µM) | solubility at 2 h ([3]; FaSSIF): 9.81 µg/mL (≈ 23.4 µM) | solubility at 24 h ([3]; FaSSIF): 7.91 µg/mL (≈ 18.9 µM) | solubility at 0.5 h ([3]; FeSSIF): 96.8 µg/mL (≈ 231 µM) | solubility at 24 h ([3]; FeSSIF): 91.5 µg/mL (≈ 219 µM) | DVS (weight gain, %) [1]: 1.60% | hygroscopicity by DVS compared with methanesulfonic acid salt [1]: much lower hygroscopicity | Oral Bioavailability (% F) ([4]; Dry Powder (capsule), administered alone): poor bioavailability | bioavailability ([4]; Dry Powder (capsule), administered alone, read-out: Oral Bioavailability (% F)): 0% | bioavailability ([4]; excipient 10% EtOH/10% PEG300/20% HS15, read-out: Oral Bioavailability (% F)): 38% | bioavailability ([4]; excipient 10% EtOH/40% PG, read-out: Oral Bioavailability (% F)): 2% | bioavailability ([4]; excipient 10% PS-20, read-out: Oral Bioavailability (% F)): 39% | bioavailability ([4]; excipient 10% PS-20/50% PEG400, read-out: Oral Bioavailability (% F)): 15% | bioavailability ([4]; excipient Corn Oil, read-out: Oral Bioavailability (% F)): 0% | bioavailability ([4]; excipient HPβCD, read-out: Oral Bioavailability (% F)): 11%
Compound: CC(C)(O)[C@H]1CC[C@H](Nc2ccc3ncc(-c4cccc(C(F)(F)F)c4)n3n2)CC1 [compound of structure (I), 2-((1R,4R)-4-((3-(3-(trifluoromethyl)phenyl)imidazo[1,2-b]pyridazin-6-yl)amino)cyclohexyl)propan-2-ol]
changes in hematological parameters including platelets, WBC counts and hemoglobin ([2]; 480 mg qd and 720 mg qd cohorts (3 patients each), first cycle, preliminary data): no marked changes in hematological parameters | side effects, regardless of causality, occurring with a frequency equal to 2 or greater ([2]; 480 mg qd and 720 mg qd cohorts, preliminary data): diarrhea, nausea and vomiting | severity of the side effect events ([2]; all Grade 1, except one event that was Grade 2): mild in severity
